Reference: patent publication US20230218765A1, “SMALL MOLECULE DEGRADERS OF SHP2 PROTEIN” (THE REGENTS OF THE UNIVERSITY OF MICHIGAN, priority 2020, published 2023)
Read-outs that look alike come from different tables or passages of the source.

Assays:
phosphorylation of ERK [1] = assay: Inhibition of ERK phosphorylation (Western blot) in KYSE520 cells; type: cell-based; settings: for concentration effective in reducing the level of pERK: KYSE520, 48 h
Description: (§1) Western blotting and quantification were performed with regular western blot method and band quantification was performed using ImageJ. Treated cells were lysed by RIPA buffer supplemented with protease and phosphatase inhibitors. The cell lysates were separated by 4-12% SDS-PAGE gels and blotted into PVDF (polyvinylidene difluoride) membranes. The net protein bands and loading controls are calculated by deducting the background from the inverted band value. The final relative quantification values are the ratio of the net band to net loading control.
(§2) GAPDH was used as a loading control. (FIG. 3A and FIG. 3B).

phosphorylation of ERK [2] = assay: Inhibition of ERK phosphorylation (Western blot) in MV4;11 cells; type: cell-based; settings: for concentration for complete inhibition of pERK: MV4;11, 48 h
Description: as §1, §2

KYSE520 cell line = assay: Cell growth assay (WST-8) in KYSE520; type: cell-based; settings: for IC50: KYSE520, 4 days, read-out: IC50, cell growth inhibition
Description: (§3) Cell viability was evaluated with a WST-8 assay (Dojindo) following the manufacturer’s instructions. Briefly, cells were seeded in 96-well cell culture plates at a density of 10,000-20,000 cells/well in 200 µL for MV4;11 cell line or 2,000-3,000 for KYSE-520 cell line of culture medium containing serial dilution of testing compounds. After 4 days of treatment, cell growth was measured by a lactate dehydrogenase-based WST-8 assay (Dojindo Molecular Technologies) using a Tecan Infinite M-1000 multimode microplate reader (Tecan US, Morrisville, NC). The WST-8 reagent was added to each well, and cells were incubated for an additional 1-2 h and read at 450 nm. The readings were normalized to the vehicle-treated cells, and the IC50 was calculated by nonlinear regression analysis using the GraphPad Prism 6 software.
(§4) Briefly, Cells were treated with indicated doses for 4 days and cell viability was determined by a colorimetric WST-8 assay.

MV4;11 cell line = assay: Cell growth assay (WST-8) in MV4;11; type: cell-based; settings: for IC50: MV4;11, 4 days, read-out: IC50, cell growth inhibition
Description: as §3, §4

SHP2 [3] = biological target: T1, SHP2 (Homo sapiens, UniProt Q06124); assay: SHP2 degradation by Western blot in MV4;11 cells
T1 sequence (Q06124 1-593): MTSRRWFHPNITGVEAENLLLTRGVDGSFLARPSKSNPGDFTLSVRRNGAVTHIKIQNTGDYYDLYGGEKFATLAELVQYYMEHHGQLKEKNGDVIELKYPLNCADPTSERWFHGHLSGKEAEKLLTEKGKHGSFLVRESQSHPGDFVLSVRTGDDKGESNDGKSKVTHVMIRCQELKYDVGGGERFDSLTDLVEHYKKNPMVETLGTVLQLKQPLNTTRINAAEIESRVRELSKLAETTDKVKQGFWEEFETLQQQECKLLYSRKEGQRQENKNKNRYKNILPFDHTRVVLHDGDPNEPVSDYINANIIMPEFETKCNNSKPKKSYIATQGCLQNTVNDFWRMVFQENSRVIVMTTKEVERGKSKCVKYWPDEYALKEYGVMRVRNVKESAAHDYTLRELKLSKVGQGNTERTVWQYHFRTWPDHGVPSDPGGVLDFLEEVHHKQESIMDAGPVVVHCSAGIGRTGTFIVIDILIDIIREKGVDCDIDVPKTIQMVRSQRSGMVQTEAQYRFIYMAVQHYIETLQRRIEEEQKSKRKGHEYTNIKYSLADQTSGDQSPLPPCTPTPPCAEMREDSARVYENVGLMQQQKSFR
Description: (§5) Western blotting and quantification were performed with regular western blot method and band quantification was performed using ImageJ. Treated cells were lysed by RIPA buffer supplemented with protease and phosphatase inhibitors. […] The net protein bands and loading controls are calculated by deducting the background from the inverted band value. The final relative quantification values are the ratio of the net band to net loading control.
(§6) The treated cells were harvested and the level of SHP2 protein was examined by blot analysis. GAPDH was used as a loading control.
(§7) SHP2 protein was examined by Western blotting and the protein level was quantified by densitometry and normalized to the corresponding density of the GAPDH protein. […] Cells were treated with 100 nM of SHP2-D26 for different times. SHP2 protein was examined by Western blotting and the GAPDH protein was used as the loading control.

SHP2 [4] = biological target: T1, SHP2; assay: SHP2 degradation by Western blot in KYSE520 cells
Description: as §5, §6, §7

SHP2 [5] = biological target: T1, SHP2; assay: SHP2 allosteric inhibition assay; type: biochemical; settings: 0.5 nM SHP2, 0.5 µM bisphosphorylated IRS1 peptide, DiFMUP substrate
Description: Assay buffer conditions: 60 mM HEPES, pH 7.2, 75 mM NaCl, 75 mM KCl, 0.05% P-20, 5 mM DTT,1 mM EDTA. 0.5 nM of SHP2 was incubated with 0.5 µM of bisphosphorylated IRS1 peptide and 100 µM (top concentration 3X dilution) of the inhibitory compounds. After incubation 60 min at RT, 5 µl 200 µM substrate DiFMUP (Invitrogen) was added and incubated another 30 min at RT. […] The fluorescence signal was detected by CLARIOstar (BMG tech), excitation wavelength was 340 nm and emission wavelength was 450 nm. The inhibitor dose-response curves were analyzed by Graphpad Prism 8.

In the case of `Cc1ncsc1-c1ccc([C@@H](C)NC(=O)[C@H]2C[C@H](O)CN2C(=O)[C@H](NC(=O)CCCCCCCCN2CCN(C(=O)CCC(=O)Nc3cccc(Sc4ncc(N5CCC(C)(N)CC5)nc4N)c3Cl)CC2)C(C)(C)C)cc1` [Compound 26], the “times more potent than SHP099 in inhibition of pERK” value (phosphorylation of ERK [1]; KYSE520) is reported as > 30 times, the “concentration effective in reducing the level of pERK” value (phosphorylation of ERK [1]) is reported as 100 nM and the “times more potent than SHP099 in inhibition of pERK” value (phosphorylation of ERK [2]; MV4;11) is reported as > 30 times. The “concentration for complete inhibition of pERK” value (phosphorylation of ERK [2]) was 100 nM, the IC50 (KYSE520 cell line; Homo sapiens, KYSE-520, 96 h) was 0.66 µM and the “times more potent than SHP099 in inhibiting cell growth” value (KYSE520 cell line; KYSE520) was 28 times. The “times more potent than compound 4 in inhibiting cell growth” value (KYSE520 cell line; KYSE520) was 64 times, the “times more potent than compound 5 in inhibiting cell growth” value (KYSE520 cell line; KYSE520) was 60 times and the IC50 (MV4;11 cell line; Homo sapiens, 96 h) was 9.9 nM. The “times more potent than SHP099 in cell growth inhibition” value (MV4;11 cell line; MV4;11) was 100 times, the “times more potent than compound 4 in cell growth inhibition” value (MV4;11 cell line; MV4;11) was > 400 times and the “times more potent than compound 5 in cell growth inhibition” value (MV4;11 cell line; MV4;11) was > 600 times. For the same compound, the “% of SHP2 protein degradation in MV4;11 cell line” value (SHP2 [3]; 0.1 µM) was >95%, the DC50 (SHP2 [3]; read-out: DC50 (concentration needed to induced targeted protein degradation by 50%), MV4;11, 12 h) was 2.6 nM and the “% of SHP2 protein degradation in KYSE520 cell line” value (SHP2 [4]; 0.1 µM) was >95%. The “% of SHP2 protein degradation in KYSE520 cell line” value (SHP2 [4]; 1 µM) was >95%, the “time to reduce the SHP2 protein level” value (SHP2 [4]; KYSE520, 100 nM) was ≤ 4 h and the “treatment time for essentially complete SHP2 depletion” value (SHP2 [4]; KYSE520, 100 nM) was 8 h. It also gave a DC50 (SHP2 [4]; read-out: DC50 (concentration needed to induced targeted protein degradation by 50%), KYSE520, 12 h) of 6 nM.

In the case of `CC(=O)Nc1cccc(Sc2ncc(N3CCC(C)(N)CC3)nc2N)c1Cl` [Compound 5, N-(3-((3-amino-5-(4-amino-4-methylpiperidin-l-yl)pyrazin-2-yl)t′hio)-2-chlorophenyl)acetamide], the IC50 (SHP2 [5]) is reported as 98.7 nM, the IC50 (KYSE520 cell line; Homo sapiens, KYSE-520, 96 h) is reported as 39.4 µM and the IC50 (MV4;11 cell line; Homo sapiens, 96 h) is reported as 6600 nM.

With `CC1(N)CCN(c2cnc(-c3cccc(Cl)c3Cl)c(N)n2)CC1` [SHP099, reference compound] the “concentration effective in reducing the level of pERK” value (phosphorylation of ERK [1]) was > 3,000 nM, the “concentration for complete inhibition of pERK” value (phosphorylation of ERK [2]) was > 3,000 nM and the IC50 (KYSE520 cell line) was 18.2 µM. For the same compound, the IC50 (MV4;11 cell line) was 1000 nM.
